Measurements: patent US11034724B2, “Crystalline salt forms of Boc-D-Arg-DMT-Lys-(Boc)-Phe-NH2” (Stealth BioTherapeutics Corp., priority 2017, dated 2021)
≈ marks a conversion by molar mass, not a printed value. Where two headings read alike, the source gives them in different places. Non-standard residues stand in square brackets, D forms with d. Residues, ends and D or L forms follow the SMILES beside them. *: point of attachment. Dmt = Cc1cc(O)cc(C)c1C[C@H](N)C(=O)O; Boc = CC(C)(C)OC(=O)*

Columns and labels:
Assay type in all cases: physicochemical
[1] = Approximate solubility assessment (solvent addition technique)
Experimental: Approximate Solubility Assessment of Boc-D-Arg-DMT-Lys(Boc)-Phe-NH2
The solubility screen was carried out as follows: • Approximately 20 mg of Boc-D-Arg-DMT-Lys(Boc)-Phe-NH2 was weighed out into each vial. • Each solvent/solvent mixture was added to the appropriate vial in 5 volume aliquots (100 μL). • In between additions, the sample was stirred at 50° C.
The solubility assessment was estimated by a solvent addition technique, heating at 50° C. between aliquots (see Table 9).

[2] = Gravimetric vapour sorption (GVS), hygroscopicity
Experimental: Gravimetric Vapour Sorption (GVS)
Approximately 15 mg of sample was placed into a mesh vapour sorption balance pan and loaded into an IGASorp Moisture Sorption Analyser balance by Hiden Analytical. The sample was subjected to a ramping profile from 40-90% relative humidity (RH) at 10% increments, maintaining the sample at each step until a stable weight had been achieved (98% step completion). After completion of the sorption cycle, the sample was dried using the same procedure to 0% RH, then subjected to a second ramping profile from 0-90% relative humidity. After completion of the second sorption cycle, the sample was dried using the same procedure to 0% RH, and finally taken back to the starting point of 40% RH. The weight change during the sorption/desorption cycles were plotted, allowing for the hygroscopic nature of the sample to be determined.

[3] = Approximate solubility assessment (solvent addition technique); details: dichloromethane, 35° C. for dichloromethane, read-out: Approximate Solubility (50° C.)

Cc1cc(O)cc(C)c1C[C@H](NC(=O)[C@@H](CCCNC(=N)N)NC(=O)OC(C)(C)C)C(=O)N[C@@H](CCCCNC(=O)OC(C)(C)C)C(=O)N[C@@H](Cc1ccccc1)C(N)=O [Boc-D-Arg-DMT-Lys(Boc)-Phe-NH2] (Boc-[dR][Dmt]K(Boc)F-NH2)
solubility ([1]; 2-butanol, solvent 2-Butanol, 50° C., read-out: Approximate Solubility (50° C.)): 17 mg/mL (≈ 20.2 mM)
solubility ([1]; 2-propanol, solvent 2-Propanol, 50° C., read-out: Approximate Solubility (50° C.)): 14 mg/mL (≈ 16.7 mM)
solubility ([1]; 2-propanol:water (50:50% v/v), solvent 2-propanol:water (50:50% v/v), 50° C., read-out: Approximate Solubility (50° C.)): ~100 mg/mL (≈ 119 mM)
solubility ([1]; DMSO:acetone (50:50% v/v), solvent DMSO:acetone (50:50% v/v), 50° C., read-out: Approximate Solubility (50° C.)): ≥ 200 mg/mL
solubility ([1]; DMSO:water (50:50% v/v), solvent DMSO:water (50:50% v/v), 50° C., read-out: Approximate Solubility (50° C.)): 24 mg/mL (≈ 28.6 mM)
solubility ([1]; acetone, solvent Acetone, 50° C., read-out: Approximate Solubility (50° C.)): < 10 mg/mL
solubility ([1]; acetone:water (50:50% v/v), solvent Acetone:water (50:50% v/v), 50° C., read-out: Approximate Solubility (50° C.)): 58 mg/mL (≈ 69 mM)
solubility ([1]; acetonitrile, solvent Acetonitrile, 50° C., read-out: Approximate Solubility (50° C.)): < 10 mg/mL
solubility ([1]; acetonitrile:water (50:50% v/v), solvent Acetonitrile:water (50:50% v/v), 50° C., read-out: Approximate Solubility (50° C.)): ≥ 200 mg/mL
solubility ([1]; all other solvent systems: acetone, dichloromethane, 2-butanol, 2-propanol, methyl ethyl ketone, toluene, THF, ethyl acetate, acetonitrile, read-out: Poor solubility): ≤ 17 mg/mL
solubility ([1]; ethanol, solvent Ethanol, 50° C., read-out: Approximate Solubility (50° C.)): ~140 mg/mL (≈ 167 mM)
solubility ([1]; ethanol:water (50:50% v/v), solvent Ethanol:water (50:50% v/v), 50° C., read-out: Approximate Solubility (50° C.)): ~100 mg/mL (≈ 119 mM)
solubility ([1]; ethyl acetate, solvent Ethyl acetate, 50° C., read-out: Approximate Solubility (50° C.)): < 10 mg/mL
solubility ([1]; in acetone:water (50:50 v/v), methanol:water (50:50 v/v) and DMSO:water (50:50 v/v), 50° C.): 58 to 24 mg/mL
solubility ([1]; methanol, solvent Methanol, 50° C., read-out: Approximate Solubility (50° C.)): ≥ 200 mg/mL
solubility ([1]; methanol:water (50:50% v/v), solvent Methanol:water (50:50% v/v), 50° C., read-out: Approximate Solubility (50° C.)): 45 mg/mL (≈ 53.6 mM)
solubility ([1]; methyl ethyl ketone, solvent Methyl ethyl ketone, 50° C., read-out: Approximate Solubility (50° C.)): < 10 mg/mL
solubility ([1]; tetrahydrofuran, solvent Tetrahydrofuran, 50° C., read-out: Approximate Solubility (50° C.)): < 10 mg/mL
solubility ([1]; toluene, solvent Toluene, 50° C., read-out: Approximate Solubility (50° C.)): < 10 mg/mL
solubility ([1]; trifluoroethanol, solvent Trifluoroethanol, 50° C., read-out: Approximate Solubility (50° C.)): ≥ 200 mg/mL
Mass increase by GVS ([2]; between 40-90% RH, received, predominantly amorphous material): ca. 10%
Hygroscopicity after crystallization ([2]; crystallized material compared with the amorphous input): did not show an improvement in terms of hygroscopicity
Hygroscopicity by GVS analysis ([2]; received, predominantly amorphous material): highly hygroscopic
solubility [3]: < 10 mg/mL
